This passage reports T/ST ratio results from patent publication US20160025717A1, “HYPOSIALYLATION DISORDERS” (THE UNITED STATES OF AMERICA, AS REPRESENTED BY THE …, priority 2013, published 2016).

For the test, the system named is GNE myopathy patients. Nature of the test: Plasma T/ST ratio (T-antigen to monosialylated ST-antigen) by LC-MS/MS in treated GNE myopathy patients. The class given is in vivo, human. The protocol: The quantification of the T/ST ratio was carried out using the O-glycan quantification methods disclosed in Liu et al., Mol Genet Metab 106, 442-454 (2012). Briefly, O-linked glycans from human serum or plasma total glycoproteins were released by sodium hydroxide with sodium borohydrate and desalted by ion-exchange column and then permethylated before the quantity of T-antigen and monosialyl ST-antigen was measured using LC-MS/MS method. Plasma samples from 40 normal controls were used to establish the normal range for the T/ST ratio at <0.056. A cut-off of 0.06 was used to diagnose hyposialylation of O-linked protein glycosylation in human plasma or serum.
O-glycans were released from plasma glycoproteins and prepared for analysis essentially as described by Carlson (J Biol Chem 243: 616-626, 1968; Liu et al. Mol Genet Metab 2012, 106, 442-454 (2012)), with modifications as described. An internal standard (1250 pmol raffinose in 5 μL) was added to 10 μL of plasma and […] for a final volume of 100 μL. Next, 100 μL of freshly prepared 2M […] in 0.1M sodium hydroxide was added to denature the serum proteins and release the O-glycans; the mixture was incubated at 45° C. for 16 hours to ensure complete reaction. The reaction was neutralized by drop wise addition of 1.6 mL of a 0.25M acetic acid-methanol solution, and the O-glycans were extracted in methanol. Finally, the extracted glycans were desalted through ion-exchange AG 50W-X8 resin (Bio-Rad, Hercules, Calif.) following the manufacture's instruction and lyophilized overnight. The dried samples were dissolved in DMSO for permethylation.
Both N-glycans and O-glycans were permethylated as previously described with minor modification (Guillard et al. Clin Chem 57, 593-602 (2011)). Briefly, four NaOH pellets (approximately 375 mg) were crushed in 10 ml anhydrous DMSO, 0.5 μL water, 0.4 ml of this slurry and 0.1 ml CH3I were added to the dried glycans and the mixture was shaken vigorously for one hour. The mixture was extracted five times sequentially with a mixture of 200 μL water and 600 μL chloroform. […]

`CC(=O)N[C@H]1[C@@H](O)[C@H](O)[C@@H](CO)O[C@H]1O` [ManNAc, N-acetyl-D-mannosamine]: the T/ST ratio result (GNE myopathy patient SIA79 self-administering off-label ManNAc, cut-off 0.06) was “normal range”.
Consider `CC(=O)N[C@@H]1C(O)C[C@](O)(C(=O)O)OC1[C@H](O)[C@H](O)CO` (stereo in doubt) [sialic acid, 5-N-acetylneuraminic acid], for which the T/ST ratio (GNE myopathy patient NH00016, after three months without medication (after sialic acid)) worked out at 0.7 and the T/ST ratio (GNE myopathy patient NH00016, had received sialic acid one month before the test) is recorded as 0.05.
